Results taken from patent US20120329985A1, “Optimal hydolysis conditions of soy protein to produce peptides with lipolysis-stimulating activity and their sequencing and use thereof” (TUNGHAI UNIVERSITY, priority 2011, published 2012).
Where two headings read alike, the source gives them in different places. Where a SMILES comes first, the peptide text is derived from it.

How the values were obtained:
3T3-L1 adipocytes [1] = assay: Measurement of the triglyceride residue in 3T3-L1 adipocytes; format: cell-based; conditions: 4 ppm fractions and synthetical peptides (FIG. 23)
Procedure: (§1) The precursor cells of 3T3-L1 cell are purchased from Food Industry Research and Development Institute in Taiwan. The purchased precursor cells of 3T3-L1 adipocytes are cultured in 24-wells plate with 1×10^4 cells/well. The cells are cultured with DMEM (Dulbecco's Modified Eagle Medium) containing 10% FBS (Fetal bovine serum) at 37° C. in the incubator with 5% CO2, and refresh cultured medium every two days. While the 3T3-L1 cells are filled within the culture dish, the culture medium is changed to the differentiation medium (DM) for promoting adipocytes differentiation, which is defined as day 0 post-differentiation. The differentiation medium contains 1.74 μM insulin, […] dexamethasone (DEX) and 0.5 mM isobutyl-methylxanthine (IBMX). From day 2 post-differentiation, the culture medium is exchanged to DMEM with 1.74 μM insulin and refreshed every two days until day 8 post-differentiation. On day 8 post-differentiation, the precursor cells would differentiate into mature 3T3-L1 adipocytes.
On day 11, the cultured cells are washed with PBS and lysed by adding lysis buffer. The supernatant of cell lysis is collected after centrifugation at 13000 rpm for 10 minutes. 10 μL supernatant of cell lysis is mixed with 1 ml triglyceride detecting kit (TR213) and incubated at room-temperature for 5 minutes. After the incubation, the triglyceride residue in the adipocytes could be calculated according to absorption excited by 500 nm wavelength and shown in FIG. 6. In FIG. 6, control experiment is the cells without treatment of ISP hydrolysate or any fractions.

[2] = test system: gastrointestinal enzymes (pepsin, pancreatin); conditions: pH 2
Procedure: (§2) Then adding pepsin with substrate-enzyme ratio at 25:1 and incubating for 4 hours is performed to mimic the environment in stomach. Following the incubation, the solution is neutralized by addition of 2N NaOH and heating some aliquot for 15 minutes to terminate the pepsin activity for freeze storage. The remainder is further incubated with pancreatin with substrate-enzyme ratio at 25:1 for 4 hours to mimic the intestinal environment. After termination of the enzyme activity by heating in boiled water and followed by cooling, the sample is freeze stored for the further analysis.
(§3) After temperature returned, the each frozen sample processed in the mimic gastrointestinal environment is centrifuged at 10,000×g for 40 minutes. After centrifugation, the supernatant is collected and filtrated through 0.22 μm filter, and added into the culture medium for 3T3-L1 adipocytes. On day 11 post-differentiation, the supernatant or cell extract are collected as the methods described in example 3 and example 7 for measuring the glycerol release and triglyceride residue in the adipocytes. The glycerol release and triglyceride residue in the adipocytes are calculated from the absorption excited by 500 and 520 nm wavelength.

3T3-L1 adipocytes [3] = assay: Measurement of the glycerol released from 3T3-L1 adipocytes; format: cell-based; conditions: 4 ppm fractions and synthetical peptides (FIG. 22); control basal level 312.3
Procedure: as §1, with “adipocytes. […]” for “adipocytes.”
30 μL of the cultured medium is collected and mixed with detecting kit (GY105) to measure the glycerol release. After reaction at room-temperature for 5 minutes, the absorption excited by 520 nm wavelength is measured by spectrophotometer to calculate the glycerol released from adipocytes.

[4] = test system: gastrointestinal enzymes (pepsin, pancreatin); assay: Resistance of the synthetical peptides in the mimic gastrointestinal environment; conditions: pepsin 25:1, pH 2.0, 37° C., 4 hours; pancreatin 25:1, 4 hours
Procedure: as §2, §3

Ile-Ile-Ile
Effect on triglyceride residue versus control (3T3-L1 adipocytes [1]): significantly reduce

CC(C)[C@H](N)C(=O)N[C@@H](Cc1c[nH]cn1)C(=O)N[C@H](C(=O)N[C@H](C(=O)O)C(C)C)C(C)C [Val-His-Val-Val] (H-VHVV-OH; N-terminus and C-terminus assumed)
Bioactivity for lipolysis after gastrointestinal enzymes [2]: resistant

Ile-Leu-Leu
Glycerol release (3T3-L1 adipocytes [3]): 540.81 nmol/mg protein
Effect on triglyceride residue versus control (3T3-L1 adipocytes [1]): significantly reduce
Triglyceride residue (3T3-L1 adipocytes [1]; control 3.2): 1.41 μmol/mg protein

CC(C)C[C@H](NC(=O)[C@H](CC(C)C)NC(=O)[C@@H](N)CC(C)C)C(=O)O [Leu-Leu-Leu] (H-Leu-Leu-Leu-OH; N-terminus and C-terminus assumed)
Bioactivity for lipolysis after gastrointestinal enzymes [4]: resistant
